In general, EC50 refers to the concentration at which the effect is half-maximal.

SMILES strings stand for the structures. A value given as a limit tells only on which side of the number the result lay.

The first test concerns the target T1, human androgen receptor (Homo sapiens, UniProt P10275).
T1 construct: expressed in transfected cells; host or cells: Chinese hamster ovary (CHO) cells, cell line CHO-AR-pMMTV-LUC 1G12-A5-CA
T1 sequence (P10275 1-920): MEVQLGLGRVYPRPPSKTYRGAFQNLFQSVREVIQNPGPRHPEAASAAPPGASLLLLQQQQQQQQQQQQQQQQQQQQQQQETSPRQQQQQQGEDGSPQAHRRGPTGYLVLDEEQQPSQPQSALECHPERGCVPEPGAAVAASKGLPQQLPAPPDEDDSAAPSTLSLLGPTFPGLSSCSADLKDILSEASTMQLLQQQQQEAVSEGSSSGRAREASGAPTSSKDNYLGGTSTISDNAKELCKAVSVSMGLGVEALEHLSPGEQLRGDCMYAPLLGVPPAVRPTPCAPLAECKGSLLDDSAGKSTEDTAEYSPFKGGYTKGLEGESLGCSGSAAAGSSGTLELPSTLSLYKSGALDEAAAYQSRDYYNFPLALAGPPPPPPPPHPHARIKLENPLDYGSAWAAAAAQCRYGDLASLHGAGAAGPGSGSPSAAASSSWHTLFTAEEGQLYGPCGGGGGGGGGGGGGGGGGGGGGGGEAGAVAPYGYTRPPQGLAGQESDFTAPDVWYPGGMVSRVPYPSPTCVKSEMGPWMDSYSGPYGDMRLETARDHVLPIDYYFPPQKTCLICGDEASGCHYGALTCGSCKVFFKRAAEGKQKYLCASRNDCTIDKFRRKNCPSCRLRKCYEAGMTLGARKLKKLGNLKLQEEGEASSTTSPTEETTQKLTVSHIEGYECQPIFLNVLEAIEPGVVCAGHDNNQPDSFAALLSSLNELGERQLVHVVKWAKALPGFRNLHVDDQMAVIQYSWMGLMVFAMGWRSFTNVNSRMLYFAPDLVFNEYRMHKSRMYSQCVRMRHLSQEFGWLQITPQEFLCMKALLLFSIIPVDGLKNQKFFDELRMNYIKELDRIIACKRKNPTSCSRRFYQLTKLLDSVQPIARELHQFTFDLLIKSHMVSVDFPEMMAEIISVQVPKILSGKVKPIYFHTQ
Briefly: Androgen receptor transactivation assay, antiandrogenic activity: inhibition of transactivation in the presence of 1 nM DHT (CHO-AR-pMMTV-LUC cells; Table 4). The class given is cell-based. Conditions: antiandrogenic activity, in the presence of 1 nM DHT; read-out: ant EC50. The protocol:
Compounds were tested for their Androgen Receptor activity in a transactivation assay and in a binding assay.
The (anti-)androgenic activity of test compounds (EC50 and intrinsic activity) was determined in an in vitro bioassay of Chinese hamster ovary (CHO) cells stably transfected with the human androgen receptor expression plasmid and a reporter plasmid in which the MMTV-promoter is linked to the luciferase reporter gene. The cell-line CHO-AR-pMMTV-LUC 1G12-AS-CA is described in Schoonen et al. (2000), Journal of Steroid Biochemistry and Molecular Biology 74(4):213-222. The antiandrogenic activity of a test compound was determined by the inhibition of the transactivation via the androgen receptor of the enzyme luciferase in the presence of 1 nM DHT (5 α-dihydrotestosterone, 17β-hydroxy-5α-androstan-3-one). Intrinsic activity of antiandrogenic activity was determined in the presence of the reference antiandrogen 2-Hydroxy-2-methyl-N-(4-nitro-3-trifluoromethyl-phenyl)-propionamide (Hydroxyflutamide), and set at 100%. For androgenic activity, maximal intrinsic activity in the presence of 100 nM DHT was set at 100%. Table 4 Androgen receptor activity
Consider `O=[N+]([O-])c1ccccc1Sc1cn(Cc2cc(F)cc(F)c2)c2cc(O)ccc12` [Compound 61, 1-(3,5-Difluoro-benzyl)-3-(2-nitro-phenylsulfanyl)-1H-indol-6-ol], for which the EC50 was greater than 10 µM.

The same test, now with this note: in the presence of 1 nM DHT; intrinsic activity relative to reference antiandrogen Hydroxyflutamide (set at 100%); read-out: ant efficacy.
For `CNC(=O)c1ccc2c(Sc3ccccc3[N+](=O)[O-])cn(Cc3cc(F)cc(F)c3)c2c1` [Compound 47, 1-(3,5-Difluoro-benzyl)-3-(2-nitro-phenylsulfanyl)-1H-indole-6-carboxylic acid methylamide], the Emax was less than 20%.
The same measure, in the same setting: with `CN(C)C(=O)c1ccc2c(Sc3ccccc3[N+](=O)[O-])cn(Cc3cc(F)cc(F)c3)c2c1` [Compound 49] the figure was less than 20%; with `O=[N+]([O-])c1ccccc1Sc1cn(Cc2cc(F)cc(F)c2)c2cc(F)ccc12` [Compound 50], less than 20%.
For the molecule `O=[N+]([O-])c1ccccc1Sc1cn(Cc2cc(F)cc(F)c2)c2ccc(F)cc12` [Compound 53], the Emax was less than 20%.
On to `O=[N+]([O-])c1ccccc1Sc1cn(Cc2cc(F)cc(F)c2)c2cccc(Cl)c12` [Compound 54], for which the Emax was less than 20%.
The same measure, in the same setting: the result for `Cc1cccc2c1c(Sc1ccccc1[N+](=O)[O-])cn2Cc1cc(F)cc(F)c1` [Compound 55] reads less than 20%.
Same read-out and setting: with `Nc1ccc2c(Sc3ccccc3[N+](=O)[O-])cn(Cc3cc(F)cc(F)c3)c2c1` [Compound 57, 1-(3,5-Difluoro-benzyl)-3-(2-nitro-phenylsulfanyl)-1H-indol-6-ylamine] the figure was less than 20%; with `CC(=O)Nc1ccc2c(Sc3ccccc3[N+](=O)[O-])cn(Cc3cc(F)cc(F)c3)c2c1` [Compound 58, N-[1-(3,5-Difluoro-benzyl)-3-(2-nitro-phenylsulfanyl)-1H-indol-6-yl]-acetamide], less than 20%.
Still for that read-out and setting: with `O=C(Nc1ccc2c(Sc3ccccc3[N+](=O)[O-])cn(Cc3cc(F)cc(F)c3)c2c1)C(F)(F)F` [Compound 59, N-[1-(3,5-Difluoro-benzyl)-3-(2-nitro-phenylsulfanyl)-1H-indol-6-yl]-2,2,2-trifluoroacetamide] the figure was less than 20%; with `O=[N+]([O-])c1ccccc1Sc1cn(Cc2cc(F)cc(F)c2)c2cc(O)ccc12` [Compound 61, 1-(3,5-Difluoro-benzyl)-3-(2-nitro-phenylsulfanyl)-1H-indol-6-ol], less than 20%; with `COc1ccc2c(S(=O)(=O)c3ccccc3[N+](=O)[O-])cn(Cc3cc(F)cc(F)c3)c2c1` [Compound 62, 1-(3,5-Difluoro-benzyl)-6-methoxy-3-(2-nitro-benzenesulfonyl)-1H-indole], less than 20%.
In the case of `COc1ccc2c(Sc3ccccc3[N+](=O)[O-])cn(Cc3cc(F)cc(F)c3)c2c1` [Compound 63, 1-(3,5-Difluoro-benzyl)-6-methoxy-3-(2-nitro-phenylsulfanyl)-1H-indole], the Emax is less than 20%.
Same read-out and setting: the result for `COc1ccc2c([S+]([O-])c3ccccc3[N+](=O)[O-])cn(Cc3cc(F)cc(F)c3)c2c1` (stereo not shown) [Compound 64, 1-(3,5-Difluoro-benzyl)-6-methoxy-3-(2-nitro-benzenesulfinyl)-1H-indole] reads 50 to 80%; that for `COc1ccc2c(Sc3ccccn3)cn(Cc3cc(F)cc(F)c3)c2c1` [Compound 65, 1-(3,5-Difluoro-benzyl)-6-methoxy-3-(pyridin-2-ylsulfanyl)-1H-indole], less than 20%.
Still for that read-out and setting: the result for `COc1ccc2c(Sc3cccc[n+]3[O-])cn(Cc3cc(F)cc(F)c3)c2c1` [Compound 66] reads 20 to 50%.
Same read-out and setting: the result for `COc1ccc2c(Sc3ccccc3[N+](=O)[O-])cn(Cc3cccc(Cl)c3)c2c1` [Compound 67] reads less than 20%.
Consider `COc1ccc2c(Sc3ccccc3[N+](=O)[O-])cn(Cc3cccc(C#N)c3)c2c1` [Compound 68], for which the Emax is less than 20%.
Still for that read-out and setting: the result for `COc1ccc2c(Sc3ccccc3[N+](=O)[O-])cn(Cc3cc(F)cc(C(F)(F)F)c3)c2c1` [Compound 69] reads less than 20%; that for `COc1ccc2c(Sc3ccccc3[N+](=O)[O-])cn(Cc3cc(F)ccc3C(F)(F)F)c2c1` [Compound 70], less than 20%.

The test is the same for the next values; noted with them: read-out: ant efficacy, in the presence of 1 nM DHT; intrinsic activity relative to reference antiandrogen Hydroxyflutamide (set at 100%).
With `CCCNC(=O)c1ccc2c(Sc3ccccc3[N+](=O)[O-])cn(Cc3cc(F)cc(F)c3)c2c1` [Compound 48], the Emax lay within 20 to 50%.
The same measure, in the same setting: the result for `O=[N+]([O-])c1ccc2c(Sc3ccccc3[N+](=O)[O-])cn(Cc3cc(F)cc(F)c3)c2c1` [Compound 60] reads less than 20%.

Values taken from patent EP1585727B1, “INDOLES USEFUL IN THE TREATMENT OF ANDROGEN-RECEPTOR RELATED DISEASES” (priority 2002, dated 2004).
